{"source": "ChEMBL document CHEMBL5137114", "about": "“Discovery of IHMT-MST1-58 as a Novel, Potent, and Selective MST1 Inhibitor for the Treatment of Type 1/2 Diabetes” (J Med Chem, 2022)", "key": {"[1]": {"test_system": "Serine/threonine-protein kinase 4 (Rattus norvegicus)", "experiment": "Inhibition of INF-gamma-stimulated MST1 phosphorylation in rat RIN-m5F cells incubated for 12 hrs by Western blotting analysis", "settings": "dose 0.1-10 µM, DDE = dose-dependent effect"}, "[2]": {"experiment": "Cmax in mouse plasma at 50 mg/kg, po measured up to 24 hrs by LC-MS/MS analysis", "format": "ADME, organism-based", "parameters": "dose 50 mg/kg, time < 24 hrs, route po"}, "INS1 [3]": {"test_system": "INS1", "experiment": "Protection against IFN-gamma-induced cell damage in rat INS1 cells assessed as increase in cell survival at 0.03 to 0.3 uM incubated for 48 hrs by Cell Titer-Glo assay", "format": "functional, cell-based", "settings": "dose 0.03-0.3 µM"}, "Mus musculus [4]": {"test_system": "Mus musculus", "experiment": "Antidiabetic activity in high fat diet-STZ-induced C57BL/6J mouse model of type 2 diabetes assessed as reduction in HbA1c level at 250 mg/kg, po qd administered in presence of metformin (reference value: 8.6 %)", "format": "functional", "parameters": "scale not given: the % may be the effect or the level left"}, "[5]": {"test_system": "Serine/threonine-protein kinase 4 (Rattus norvegicus)", "experiment": "Inhibition of IL-1beta-stimulated MST1 in rat INS1 cells assessed as reduction in MOB1 autophosphorylation incubated for 12 hrs by Western blotting analysis", "settings": "dose 0.1-10 µM, DDE = dose-dependent effect"}, "RIN-m5F": {"test_system": "RIN-m5F", "experiment": "Protection against TNF-alpha-induced cell damage in rat RIN-m5F cells assessed as increase in cell survival at 0.03 to 0.3 uM incubated for 48 hrs by Cell Titer-Glo assay", "format": "functional, cell-based", "settings": "dose 0.03-0.3 µM"}, "[6]": {"test_system": "Serine/threonine-protein kinase 4 (Rattus norvegicus)", "experiment": "Inhibition of TNF-alpha-stimulated MST1 phosphorylation in rat INS1 cells incubated for 12 hrs by Western blotting analysis", "settings": "dose 0.1-10 µM, DDE = dose-dependent effect"}, "[7]": {"experiment": "Cmax in Sprague-Dawley rat at 10 mg/kg, po measured up to 24 hrs by LC-MS/MS analysis", "format": "ADME, organism-based", "parameters": "dose 10 mg/kg, time < 24 hrs, route po", "settings": "in vivo"}, "[8]": {"experiment": "Oral bioavailability in mouse at 10 mg/kg measured up to 24 hrs by LC-MS/MS analysis", "format": "ADME, organism-based", "settings": "in vivo"}, "[9]": {"experiment": "Toxicity in high fat diet-STZ-induced C57BL/6J mouse model of type 2 diabetes assessed as effect on pancreas morphology at 50 mg/kg, po qd by H and E staining based analysis", "format": "organism-based", "settings": "in vivo"}, "[10]": {"test_system": "Serine/threonine-protein kinase 4 (Rattus norvegicus)", "experiment": "Inhibition of INF-gamma-stimulated MST1 phosphorylation in rat INS1 cells incubated for 12 hrs by Western blotting analysis", "settings": "dose 0.1-10 µM, DDE = dose-dependent effect"}, "[11]": {"experiment": "Oral bioavailability in Sprague-Dawley rat at 10 mg/kg measured up to 24 hrs by LC-MS/MS analysis", "format": "ADME, organism-based", "settings": "in vivo"}, "Mus musculus [12]": {"test_system": "Mus musculus", "experiment": "Antidiabetic activity against 8 hrs fasted multi low dose STZ-induced C57BL/6J mouse model of type 1 diabetes assessed as decrease in fasting blood glucose level at 50 mg/kg, po administered measured immediately (reference value: 19.3 mmol/L)", "format": "functional"}, "INS1 [13]": {"test_system": "INS1", "experiment": "Protection against IL-1beta-induced cell damage in rat INS1 cells assessed as increase in cell survival at 0.03 to 0.3 uM incubated for 48 hrs by Cell Titer-Glo assay", "format": "functional, cell-based", "settings": "dose 0.03-0.3 µM"}}, "note": "Activity calls are given as the source filed them. The rule behind the calls is not given here.", "data": [{"smiles": "Cc1ccccc1C1C(=O)N(C)c2cnc(Nc3ccc(S(N)(=O)=O)cc3)nc2N1C", "note": "(centres undefined)", "values": [{"measurement": "inhibition", "setting": "[1]", "value": "Dde"}, {"measurement": "Cmax", "setting": "[2]", "value": 3990, "unit": "ng/mL"}, {"measurement": "Activity", "setting": "INS1 [3]", "value": "Active"}, {"measurement": "Activity", "setting": "Mus musculus [4]", "value": 5.9, "unit": "%"}, {"measurement": "inhibition", "setting": "[5]", "value": "Dde"}, {"measurement": "Activity", "setting": "RIN-m5F", "value": "Active"}, {"measurement": "inhibition", "setting": "[6]", "value": "Dde"}, {"measurement": "Cmax", "setting": "[7]", "value": 1720, "unit": "ng/mL"}, {"measurement": "bioavailability", "setting": "[8]", "value": 111, "unit": "%"}, {"measurement": "Activity", "setting": "[9]", "value": "Non-Toxic"}, {"measurement": "inhibition", "setting": "[10]", "value": "Dde"}, {"measurement": "F", "setting": "[11]", "value": 73.3, "unit": "%"}, {"measurement": "Activity", "setting": "Mus musculus [12]", "value": 19.4, "unit": "mmol/L"}, {"measurement": "Activity", "setting": "INS1 [13]", "value": "Active"}]}]}
